In ChEMBL document CHEMBL1201862, “PubChem BioAssay data set” (2004):
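Five concentrations, 48 hours, 96-well plates. Here, GI50 denotes the concentration required for 50% inhibition of growth.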 Calls of active or inactive are those of the source. Cut-off read from the data, not from the text of the source: active = GI50 up to about 1.1 µM and inactive = higher.

Key:
Assay in all cases: inhibition of tumour cell growth, NCI panel, 48 h
RXF 393 = system: RXF 393
EKVX = system: EKVX
HCT-116 = system: HCT-116
U-251 = system: U-251
HOP-62 = system: HOP-62
HT-29 = system: HT-29
MDA-N = system: MDA-N
MDA-MB-231 = system: MDA-MB-231
OVCAR-3 = system: OVCAR-3
CAKI-1 = system: CAKI-1
COLO 205 = system: COLO 205
SF-268 = system: SF-268
LOX IMVI = system: LOX IMVI
KM12 = system: KM12
M14 = system: M14
HL-60 = system: HL-60
K562 = system: K562
SNB-19 = system: SNB-19

Measured: GI50

COc1ccc(/N=N/c2c(O)ccc3ccccc23)cc1
inactive: RXF 393 41.2 µM | EKVX 14.3 µM | HCT-116 > 100 µM | U-251 15.8 µM | HOP-62 13.8 µM | HT-29 17 µM | MDA-N > 100 µM | MDA-MB-231 24.5 µM | OVCAR-3 28.6 µM | CAKI-1 > 100 µM | COLO 205 > 100 µM | SF-268 16.1 µM | LOX IMVI 49.2 µM | KM12 12.1 µM | M14 26.1 µM | HL-60 > 100 µM

c1ccc(SC2(Sc3ccccc3)CCCC2)cc1
inactive: RXF 393 > 100 µM | EKVX > 100 µM | HCT-116 > 100 µM | U-251 > 100 µM | K562 > 100 µM | HOP-62 > 100 µM | SNB-19 > 100 µM | OVCAR-3 > 100 µM | CAKI-1 > 100 µM | COLO 205 > 100 µM | SF-268 > 100 µM | LOX IMVI > 100 µM | KM12 > 100 µM | M14 > 100 µM | HL-60 > 100 µM

CCC(C)C(NC(=O)c1cccc2c(=O)c3ccccc3[nH]c12)C(=O)O (stereo not drawn)
inactive: EKVX > 100 µM | HCT-116 > 100 µM | U-251 73.5 µM | K562 91.8 µM | HOP-62 > 100 µM | HT-29 > 100 µM | SNB-19 99.5 µM | MDA-N > 100 µM | MDA-MB-231 > 100 µM | OVCAR-3 > 100 µM | COLO 205 > 100 µM | SF-268 87.5 µM | LOX IMVI > 100 µM | KM12 61.1 µM | M14 > 100 µM

CC(C)(C)C(=O)C1CC(=O)c2ccccc2C1=O (stereo not drawn)
inactive: RXF 393 22.2 µM | EKVX 32.4 µM | HCT-116 21.4 µM | U-251 34 µM | K562 40.6 µM | HOP-62 25.2 µM | SNB-19 24 µM | OVCAR-3 24.3 µM | CAKI-1 39.6 µM | COLO 205 31.8 µM | SF-268 21.8 µM | LOX IMVI 40.8 µM | KM12 31.8 µM | M14 39.3 µM | HL-60 20.7 µM

C=C/C(C)=C\CC1[C@](C)(O)CC[C@H]2C(C)(C)C(=O)CC[C@]12C (stereo partly drawn)
inactive: RXF 393 32.3 µM | EKVX > 100 µM | HCT-116 47.5 µM | U-251 > 100 µM | K562 57.7 µM | HT-29 47.6 µM | SNB-19 > 100 µM | MDA-N 96.4 µM | MDA-MB-231 > 100 µM | OVCAR-3 41.7 µM | CAKI-1 > 100 µM | COLO 205 92.3 µM | SF-268 > 100 µM | LOX IMVI 93.8 µM | KM12 85.5 µM | M14 39.4 µM | HL-60 12.1 µM

Cc1cc(C)nc(NS(=O)(=O)c2ccc(Nc3c4ccccc4nc4c(C(=O)Nc5ccc(S(=O)(=O)N=C(N)N)cc5)cccc34)cc2)n1
inactive: RXF 393 24.4 µM | EKVX > 100 µM | U-251 98.9 µM | K562 > 100 µM | HOP-62 > 100 µM | HT-29 > 100 µM | SNB-19 35.7 µM | OVCAR-3 > 100 µM | CAKI-1 > 100 µM | COLO 205 > 100 µM | SF-268 > 100 µM | LOX IMVI > 100 µM | KM12 > 100 µM | M14 90.4 µM

CC(C)(C)C1CCC2c3c([nH]c4ccccc34)C3C(=O)N(c4cc(Cl)ccc4Cl)C(=O)C3C2C1 (stereo not drawn)
inactive: RXF 393 > 100 µM | EKVX > 100 µM | HCT-116 > 100 µM | U-251 > 10 µM | K562 > 100 µM | HOP-62 > 100 µM | HT-29 > 100 µM | SNB-19 > 100 µM | MDA-N > 100 µM | MDA-MB-231 25.9 µM | OVCAR-3 > 100 µM | CAKI-1 > 100 µM | COLO 205 > 100 µM | LOX IMVI 38.8 µM | M14 > 100 µM | HL-60 > 10 µM
